Where “and” joins values, the source holds several entries; their conditions need not be identical. Identical values can stand only once. Counter-ions that a name gives are not always drawn.

Test [1] relates to shunt pathway activated by cobra venom factor. Put plainly: Test, Code 036 (C-Shunt inhibitor). The test is classed as cell-based. As to conditions: Table I, lysis of fragile human erythrocytes in autologous serum, serial two-fold dilution assay, higher well number indicates higher activity. The source says:
(§1) An active inhibitor protects C2 from C1 and C4; (ii) Test, Code 035 (C3- C9 inhibitor) - This test determines the ability of the late components of human complement (C3-C9) to lyse EAC 142 in the presence of appropriate dilutions of the test compound. An active inhibitor protects EAC 142 from lysis by human C3-C9; (iii) Test, Code 036 (C-Shunt inhibitor) - In this test human erythrocytes rendered fragile are lysed in autologous serum via the shunt pathway activated by cobra venom factor in the presence of appropriate dilutions of the test compound. Inhibition of the shunt pathway results in failure of lysis; (iv) Forssman Vasculitis Test - Here, the well known complement dependent lesion, Forssman vasculitis, is produced in guinea pigs by intradermal injection of rabbit anti-forssman antiserum. The lesion is measured in terms of diameter, edema and hemorrhage and the extent to which a combined index of these is inhibited by prior intraperitoneal injection of the test compound at 200 mg/kg in then reported, unless otherwise stated; (v) Forssman Shock Test -- Lethal shock is produced in guinea pigs by an i.v. injection of anti-Forssman antiserum and the harmonic mean death time of treated guinea pigs is compared with that of simultaneous controls; (vi) Complement Level Reduction Test -- In this test, the above dosed guinea pigs, or others, are bled for serum and the complement level is determined in undiluted serum by the capillary tube method of U.S. Pat. No. 3,876,376 and compared to undosed control guinea pigs; and (vii) Cap 50 Test -- Here, appropriate amounts of the test compound are added to a pool of guinea pig serum in vitro, after which the undiluted serum capillary tube assay referred to above is run. The concentration of compound inhibiting 50% is reported.

A further test addresses activated human C1 (Homo sapiens, UniProt P09871). Kind of test: Test, Code 026 (C1 inhibitor). Format: biochemical. As to conditions: for COMPLEMENT INHIBITING ACTIVITY (WELLS) CODE 026 / LOGARITHMIC DIFFERENCE EXPRESSED AS WELLS / INTRINSIC THERAPEUTICAL INDEX: Table II; for COMPLEMENT INHIBITING ACTIVITY (WELLS) CODE 026: highest active serial dilution; for 026 Wells: Table I, serial two-fold dilution assay, higher well number indicates higher activity; for LOGARITHMIC DIFFERENCE EXPRESSED AS WELLS: Code 026 wells minus AC wells (base 2); for INTRINSIC THERAPEUTICAL INDEX: antilogarithm (base 2) of difference between Code 026 wells and AC wells.
Description: as §1

The subject of a further test is Citrated sheep plasma. Kind of test: In vitro anti-coagulant activity (AC) test. As to conditions: for A.C. Wells: Table I, clot inhibition, recalcified citrated sheep plasma, serial two-fold dilutions; for ANTI-COAGULANT ACTIVITY (WELLS) AC: Table II, highest active serial dilution. The protocol:
The sheep RBC'S, kept in suspension throughout the clotting incubation time, become enmeshed in the fibrin matrix if a clot forms. Upon centrifugation of the plate untrapped RBC's form buttons, the sizes of which correspond to the degree of clot inhibition; this providing a measure of anti-coagulant activity (AC).

For test [2], the system named is late components of human complement (C3-C9). Kind of test: Test, Code 035 (C3-C9 inhibitor). Format: biochemical. The conditions noted are these: Table I; lysis of EAC 142; serial two-fold dilution assay, higher well number indicates higher activity.
Description: as §1

Turning to `O=S(=O)(O)OC[C@H]1O[C@H](O[C@H]2[C@H](OS(=O)(=O)O)[C@@H](OS(=O)(=O)O)[C@@H](O[C@H]3[C@H](OS(=O)(=O)O)[C@@H](OS(=O)(=O)O)[C@@H](O[C@H]4[C@H](OS(=O)(=O)O)[C@@H](OS(=O)(=O)O)C(OS(=O)(=O)O)O[C@@H]4COS(=O)(=O)O)O[C@@H]3COS(=O)(=O)O)O[C@@H]2COS(=O)(=O)O)[C@H](OS(=O)(=O)O)[C@@H](OS(=O)(=O)O)[C@@H]1O[C@H]1O[C@H](COS(=O)(=O)O)[C@@H](O[C@H]2O[C@H](COS(=O)(=O)O)[C@@H](O[C@H]3O[C@H](COS(=O)(=O)O)[C@@H](OS(=O)(=O)O)[C@H](OS(=O)(=O)O)[C@H]3OS(=O)(=O)O)[C@H](OS(=O)(=O)O)[C@H]2OS(=O)(=O)O)[C@H](OS(=O)(=O)O)[C@H]1OS(=O)(=O)O` (stereo partly drawn) [Maltoheptaose Poly(H-)sulfate Sodium Salt], the “036 Wells” value in test [1] (Sodium Salt) was 6 Wells and 5 Wells.

Take `O=S(=O)(O)OC[C@H]1O[C@H](O[C@H]2[C@H](OS(=O)(=O)O)[C@@H](OS(=O)(=O)O)C(OS(=O)(=O)O)O[C@@H]2COS(=O)(=O)O)[C@H](OS(=O)(=O)O)[C@@H](OS(=O)(=O)O)[C@@H]1OS(=O)(=O)O` (stereo partly drawn) [Maltose Poly(H--) sulfate sodium salt, Maltose Poly (H-)Sulfate Sodium Salt]: on activated human C1 (Sodium Salt), the “COMPLEMENT INHIBITING ACTIVITY (WELLS) CODE 026” value (from here on “COMPLEMENT INHIBITING ACTIVITY”) is reported as “+12 WELLS”. Besides, in the test on Citrated sheep plasma (Sodium Salt), the “A.C. Wells” value is given as “+2 Wells” and the “ANTI-COAGULANT ACTIVITY (WELLS) AC” value is on record as “+2 WELLS”.

`O=S(=O)(O)OC[C@H]1O[C@H](O[C@H]2[C@H](OS(=O)(=O)O)[C@@H](OS(=O)(=O)O)[C@@H](O[C@H]3[C@H](OS(=O)(=O)O)[C@@H](OS(=O)(=O)O)[C@@H](O[C@H]4[C@H](OS(=O)(=O)O)[C@@H](OS(=O)(=O)O)C(OS(=O)(=O)O)O[C@@H]4COS(=O)(=O)O)O[C@@H]3COS(=O)(=O)O)O[C@@H]2COS(=O)(=O)O)[C@H](OS(=O)(=O)O)[C@@H](OS(=O)(=O)O)[C@@H]1O[C@H]1O[C@H](COS(=O)(=O)O)[C@@H](O[C@H]2O[C@H](COS(=O)(=O)O)[C@@H](O[C@H]3O[C@H](COS(=O)(=O)O)[C@@H](OS(=O)(=O)O)[C@H](OS(=O)(=O)O)[C@H]3OS(=O)(=O)O)[C@H](OS(=O)(=O)O)[C@H]2OS(=O)(=O)O)[C@H](OS(=O)(=O)O)[C@H]1OS(=O)(=O)O` (stereo partly drawn) [Maltoheptaose Poly(H-)sulfate Trimethylamine Salt]: the “036 Wells” value in test [1] came out at 5 Wells. At activated human C1, the “026 Wells” value was “+9 Wells”, the “LOGARITHMIC DIFFERENCE EXPRESSED AS WELLS” value is “+5 WELLS” and the “COMPLEMENT INHIBITING ACTIVITY” value is recorded as “+9 WELLS”. Besides, in the test with Citrated sheep plasma, the “A.C. Wells” value is given as “+4 Wells” and the “ANTI-COAGULANT ACTIVITY (WELLS) AC” value is “+4 WELLS”.

For “Maltotriose Poly(H-)sulfate Trimethylamine Salt”, the “035 Wells” value in test [2] was “Neg”. The “036 Wells” value in test [1] is recorded as “Neg”. Further, on activated human C1, the “026 Wells” value is recorded as “+7 Wells”, the “LOGARITHMIC DIFFERENCE EXPRESSED AS WELLS” value is “+8 WELLS”, the “INTRINSIC THERAPEUTICAL INDEX” value is 256 and the “COMPLEMENT INHIBITING ACTIVITY” value is given as “+7 WELLS”. In the test on Citrated sheep plasma, the “A.C. Wells” value is -1 Wells and the “ANTI-COAGULANT ACTIVITY (WELLS) AC” value is -1 WELLS.

On to Maltotriose Poly(H-)sulfate Sodium Salt, for which, in test [2], the “035 Wells” value is on record as “Neg”. Besides, the “036 Wells” value in test [1] is given as “Neg”. Further, at activated human C1, the “026 Wells” value is “+9 Wells”, the “LOGARITHMIC DIFFERENCE EXPRESSED AS WELLS” value is reported as “+10 WELLS”, the “INTRINSIC THERAPEUTICAL INDEX” value was 1024 and the “COMPLEMENT INHIBITING ACTIVITY” value is “+9 WELLS”. In the test with Citrated sheep plasma, the “A.C. Wells” value was -1 Wells and the “ANTI-COAGULANT ACTIVITY (WELLS) AC” value is listed as -1 WELLS.

For `O=S(=O)(O)OC[C@H]1O[C@H](O[C@H]2[C@H](OS(=O)(=O)O)[C@@H](OS(=O)(=O)O)C(OS(=O)(=O)O)O[C@@H]2COS(=O)(=O)O)[C@H](OS(=O)(=O)O)[C@@H](OS(=O)(=O)O)[C@@H]1OS(=O)(=O)O` (stereo partly drawn) [Maltose Poly(H-)Sulfate Trimethylamine Salt], the “035 Wells” value in test [2] is “Neg”. Moreover, the “036 Wells” value in test [1] is on record as “Neg”. For the same compound, on activated human C1, the “LOGARITHMIC DIFFERENCE EXPRESSED AS WELLS” value is given as “+10 WELLS”, the “INTRINSIC THERAPEUTICAL INDEX” value was found to be 1024 and the “COMPLEMENT INHIBITING ACTIVITY” value is given as “+8 WELLS”. In the test on Citrated sheep plasma, the “A.C. Wells” value is -2 Wells and the “ANTI-COAGULANT ACTIVITY (WELLS) AC” value is listed as -2 WELLS.

The record behind these values is US4021544A, “Complement inhibitors” (American Cyanamid Company, priority 1976, dated 1977).
